Test results published in patent US8017612B2, “Piperazine compound and use thereof as a HCV polymerase inhibitor” (priority 2006, dated 2011).
Where a name gives a salt, the structure may show the parent alone.

Key:
[1] = biological target: T1, HCV polymerase (NS5B) type 1a (Hepatitis C virus genotype 1a, UniProt P26664); assay: Assay of enzyme (HCV polymerase) inhibitory activity, type 1a enzyme; type: biochemical, HCV type 1a (cloned from the blood of patients)
T1 construct: made in house; host or cells: Escherichia coli (by the 'similar method' of the 1b enzyme)
Method in brief: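 IC50 values derive from radioactivity of newly synthesized RNA with versus without test compound. The enzyme was C-terminally truncated type 1a NS5B, 1.5 μg/ml, run 60 min at 25° C with 3H-UTP-labelled nucleotides.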

[2] = biological target: T2, HCV polymerase (NS5B) type 1b (Hepatitis C virus genotype 1b, UniProt P26663); assay: Assay of enzyme (HCV polymerase) inhibitory activity, type 1b enzyme; type: biochemical, HCV BK strain (type 1b)
T2 construct: a region encoding NS5B (J Virol 1991 March, 65(3), 1105-13, 544 amino acids after deletion of 47 amino acids on the C-terminal); 6xHis (C); made in house; host or cells: Escherichia coli
Method in brief: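 Polymerase activity was followed as radiolabelled UTP incorporation by E. coli-expressed, His-tagged NS5B of HCV type 1b lacking its last 47 residues. Conditions: 2 μM UTP, 50 μM other NTPs, Mg2+ buffer at pH 7.5, 25 °C for 60 min. Inhibition relative to compound-free reactions gave IC50.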

[3] = HCV polymerase inhibitory activity (IC50), 1a, type 1a enzyme 1.5 μg/ml, 25° C., 60 min
[4] = HCV polymerase inhibitory activity (IC50), 1b, type 1b enzyme 0.5 μg/ml, 25° C., 60 min
[5] = HCV polymerase inhibitory activity IC50, 1a, type 1a enzyme
[6] = HCV polymerase inhibitory activity IC50, 1b, type 1b enzyme

Cc1nc(N2CCN(S(=O)(=O)c3ccc(C(F)(F)F)cc3)[C@@H](C(=O)NCc3ccc(C(C)C)cc3)C2)oc1C(=O)O [Example 371, 2-[(R)-3-(4-isopropyl-benzylcarbamoyl)-4-(4-trifluoromethyl-benzenesulfonyl)-piperazin-1-yl]-4-methyl-oxazole-5-carboxylic acid trifluoroacetate]
IC50 [1, 3]: 100 to 1000 nM
IC50 [2, 4]: 100 to 1000 nM

CCC(F)(F)c1ccc(CNC(=O)[C@H]2CN(c3nc4cnncc4s3)CCN2S(=O)(=O)c2ccc(OC(F)(F)F)cc2)cc1 [Example 694, (R)-4-thiazolo[4,5-d]pyridazin-2-yl-1-(4-trifluoromethoxy-benzenesulfonyl)-piperazine-2-carboxylic acid 4-(1,1-difluoro-propyl)-benzylamide]
IC50 [1, 5]: < 100 nM
IC50 [2, 6]: < 100 nM

Cc1nc(N2CCN(S(=O)(=O)c3ccc(C(F)(F)F)cc3)[C@@H](C(=O)NCc3ccc(C(C)C)cc3)C2)c(C)nc1C(=O)O [Example 422, (R)-3-(4-isopropyl-benzylcarbamoyl)-3′,6′-dimethyl-4-(4-trifluoromethyl-benzenesulfonyl)-3,4,5,6-tetrahydro-2H-[1,2′]bipyrazinyl-5′-carboxylic acid]
IC50 [1, 3]: > 1000 nM
IC50 [2, 4]: > 1000 nM

CC(=O)N1CCN(S(=O)(=O)c2ccc(C)cc2)C(C(=O)NCc2ccc(C(F)(F)F)cc2)C1 (stereo not drawn) [Example 64, 4-acetyl-1-(toluene-4-sulfonyl)-piperazine-2-carboxylic acid 4-trifluoromethyl-benzylamide]
IC50 [1, 3]: > 1000 nM
IC50 [2, 4]: > 1000 nM

COC(=O)COc1ccc(S(=O)(=O)N2CCN(C(C)=O)C[C@@H]2C(=O)NCc2ccc(C(C)C)cc2)cc1 [Example 238, {4-[(R)-4-acetyl-2-(4-isopropyl-benzylcarbamoyl)-piperazine-1-sulfonyl]-phenoxy}-acetic acid methyl ester]
IC50 [1, 3]: > 1000 nM
IC50 [2, 4]: 100 to 1000 nM

CCCc1ccc(S(=O)(=O)N2CCN(C(C)=O)C[C@@H]2C(=O)NCc2ccc(C(C)C)cc2)s1 [Example 287, (R)-4-acetyl-1-(5-propyl-thiophene-2-sulfonyl)-piperazine-2-carboxylic acid 4-isopropyl-benzylamide]
IC50 [1, 3]: < 100 nM
IC50 [2, 4]: < 100 nM

CCC(F)(F)c1ccc(CNC(=O)[C@H]2CN(c3cnc4cncnc4n3)CCN2S(=O)(=O)c2ccc(-c3cccs3)cc2)cc1 [Example 709, (R)-4-pteridin-7-yl-1-(4-thiophen-2-yl-benzenesulfonyl)-piperazine-2-carboxylic acid 4-(1,1-difluoro-propyl)-benzylamide]
IC50 [1, 5]: < 100 nM
IC50 [2, 6]: < 100 nM

O=C(NCc1ccc(OC(F)(F)F)cc1)[C@H]1CN(c2ccn3ncnc3n2)CCN1S(=O)(=O)c1ccc(OC(F)(F)F)cc1 [Example 750, (R)-4-[1,2,4]triazolo[1,5-a]pyrimidin-5-yl-1-(4-trifluoromethoxy-benzenesulfonyl)-piperazine-2-carboxylic acid 4-trifluoromethoxy-benzylamide]
IC50 [1, 5]: < 100 nM
IC50 [2, 6]: < 100 nM

CCC(F)(F)c1ccc(CNC(=O)[C@H]2CN(c3cnc(CO)c(N)n3)CCN2S(=O)(=O)c2ccc(OC(F)(F)F)cc2)cc1 [Example 604, (R)-6′-amino-5′-hydroxymethyl-4-(4-trifluoromethoxy-benzenesulfonyl)-3,4,5,6-tetrahydro-2H-[1,2′]bipyrazinyl-3-carboxylic acid 4-(1,1-difluoro-propyl)-benzylamide]
IC50 [1, 3]: 100 to 1000 nM
IC50 [2, 4]: < 100 nM
